Laboratory results from ChEMBL document CHEMBL5661975, “Discovery and pharmacologic characterization of CP-724,714, a selective ErbB2 tyrosine kinase inhibitor” (Cancer Res, 2007).
Values after ≈ are worked out from the molar mass of the structure shown. Active and inactive are the calls of the source. The calls are words filed in the database; no cut-off is given here.

Columns and labels:
FRE [1] = test: Antitumor activity against human erbB2 transfected FRE cells xenografted bearing female athymic nu-nu CD-1 mouse assessed as increase in cleaved caspase-3 cells at 100 mg/kg, po administration and measured at 8 hrs by immunohistochemical analysis; type: functional, organism-based
BT-474 [2] = test: Antitumor activity against human BT-474 expressing erbB2 cells xenografted bearing female athymic nu-nu CD-1 mouse assessed as reduction in tumor erbB2 receptor phosphorylation at 1 to 30 mg/kg, po bid administration and measured at 40 day by ELISA method relative to control; type: functional; design: scale not given: the % may be the effect or the level left; conditions: dose 1-30 mg/kg
[3] = Antitumor activity against human erbB2 transfected FRE cells xenografted bearing female athymic nu-nu CD-1 mouse assessed as reduction in tumor erbB2 receptor phosphorylation, po administration by ELISA method; type: functional, organism-based
[4] = Antitumor activity against human erbB2 transfected FRE cells xenografted bearing female athymic nu-nu CD-1 mouse assessed as apoptotic changes at 100 mg/kg, po administration and measured at 8 hrs by H&E staining method relative to control; type: functional
MDA-MB-453 [5] = test: Antiproliferative activity against human MDA-MB-453 cells assessed as inhibition of cell growth; type: functional, cell-based
BT-474 [6] = test: Antitumor activity against human BT-474 expressing erbB2 cells xenografted bearing female athymic nu-nu CD-1 mouse assessed as tumor regression at 100 mg/kg, po bid administration and measured at 40 day relative to control; type: functional
[7] = Antitumor activity against human erbB2 transfected FRE cells xenografted bearing female athymic nu-nu CD-1 mouse assessed as inhibition in tumor growth at 50 mg/kg, po QD administrated for 8 to 40 days relative to control; type: functional; conditions: time 8-40 day
BT-474 [8] = test: Antitumor activity against human BT-474 expressing erbB2 cells xenografted bearing female athymic nu-nu CD-1 mouse assessed as reduction in tumor erbB2 receptor phosphorylation at 100 mg/kg, po bid administration and measured at 40 day by ELISA method relative to control; type: functional; design: scale not given: the % may be the effect or the level left
BT-474 [9] = test: Induction of cell cycle arrest in Her2-amplified human BT-474 cells overexpressing erbB2 assessed as increase in G1 phase at 1 micromol/L incubated for 24 hrs by flow cytometry analysis relative to control; type: functional; conditions: dose 1 µmol/L, at 1 µM
CAMA-1 = test: Antiproliferative activity against human CAMA-1 cells assessed as inhibition of cell growth; type: functional, cell-based
BT-474 [10] = test: Antitumor activity against human BT-474 expressing erbB2 cells xenografted bearing female athymic nu-nu CD-1 mouse assessed as inhibition in tumor growth at 50 to 100 mg/kg, po bid administration and measured at 4 day; type: functional, organism-based; conditions: dose 50-100 mg/kg
[11] = Toxicity in human erbB2 transfected FRE cells xenografted bearing female athymic nu-nu CD-1 mouse assessed as body weight loss at 50 mg/kg, po QD administrated for 8 to 40 days; type: organism-based; conditions: in vivo, time 8-40 day
BT-474 [12] = test: Antiproliferative activity against human BT-474 cells assessed as inhibition of cell growth; type: functional, cell-based
BT-474 [13] = test: Antitumor activity against human BT-474 expressing erbB2 cells xenografted bearing female athymic nu-nu CD-1 mouse assessed as inhibition in tumor growth at 30 mg/kg, po bid administration and measured at 40 day relative to control; type: functional; conditions: BT-474, 960 h
BT-474 [14] = test: Induction of cell cycle arrest in Her2-amplified human BT-474 cells overexpressing erbB2 assessed as reduction in S phase at 1 micromol/L incubated for 24 hrs by flow cytometry analysis relative to control; type: functional; design: scale not given: the % may be the effect or the level left; conditions: dose 1 µmol/L, at 1 µM
[15] = Average plasma concentration (0 to 4 hrs) in human erbB2 transfected FRE cells xenografted bearing female athymic nu-nu CD-1 mouse at 50 mg/kg, po QD administrated for 8 to 40 days by liquid chromatography-tandem mass spectrometry analysis; type: ADME, organism-based; conditions: in vivo, time 8-40 day
COLO 205 = test: Antitumor activity against human COLO 205 low expressing erbB2 cells xenografted bearing female athymic nu-nu CD-1 mouse assessed as inhibition in tumor growth at 100 mg/kg, po bid administrated for 14 to 31 days relative to control; type: functional; conditions: time 14-31 day
BT-474 [16] = test: Antitumor activity against human BT-474 expressing erbB2 cells xenografted bearing female athymic nu-nu CD-1 mouse assessed as inhibition in tumor growth at 1 mg/kg, po bid administration and measured at 40 day relative to control; type: functional; conditions: BT-474, 960 h
MDA-MB-453 [17] = test: Antitumor activity against human MDA-MB-453 high expressing erbB2 cells xenografted bearing female athymic nu-nu CD-1 mouse assessed as inhibition in tumor growth at 100 mg/kg, po bid administrated for 8 to 40 days relative to control; type: functional; conditions: time 8-40 day
MDA-MB-453 [18] = test: Antitumor activity against human MDA-MB-453 expressing erbB2 cells xenografted bearing female athymic nu-nu CD-1 mouse assessed as inhibition in tumor growth at 25 mg/kg, po bid administration and measured at 29 day relative to control; type: functional; conditions: MDA-MB-453, 696 h
BT-474 [19] = test: Antitumor activity against human BT-474 expressing erbB2 cells xenografted bearing female athymic nu-nu CD-1 mouse assessed as inhibition in tumor growth at 10 mg/kg, po bid administration and measured at 40 day relative to control; type: functional; conditions: BT-474, 960 h
BT-474 [20] = test: Inhibition of colony formation in human BT-474 cells overexpressing erbB2 assessed as decrease in colony formation at 1 micromol/L by methanolic crystal violet staining relative to control; type: functional; conditions: dose 1 µmol/L
MCF7 = test: Antiproliferative activity against human MCF7 cells assessed as inhibition of cell growth; type: functional, cell-based
ZR-75-30 = test: Antiproliferative activity against human ZR-75-30 cells assessed as inhibition of cell growth; type: functional, cell-based
FRE [21] = test: Antitumor activity against human erbB2 transfected FRE cells xenografted bearing female athymic nu-nu CD-1 mouse assessed as tumor erbB2 receptor phosphorylation at 3.125 to 100 mg/kg, po administration by ELISA method; type: functional, organism-based; conditions: dose 3.125-100 mg/kg
BT-474 [22] = test: Antitumor activity against human BT-474 expressing erbB2 cells xenografted bearing female athymic nu-nu CD-1 mouse assessed as decrease in tumor growth at 30 mg/kg, po bid administration and measured at 14 day; type: functional, organism-based
T47D = test: Antiproliferative activity against human T47D cells assessed as inhibition of cell growth; type: functional, cell-based
SK-BR-3 [23] = test: Antiproliferative activity against human SK-BR-3 cells assessed as inhibition of cell growth; type: functional, cell-based
SK-BR-3 [24] = test: Inhibition of colony formation in human SK-BR-3 cells overexpressing erbB2 assessed as decrease in colony formation at 3 micromol/L by methanolic crystal violet staining relative to control; type: functional; conditions: dose 3 µmol/L
UACC-812 = test: Antiproliferative activity against human UACC-812 cells assessed as inhibition of cell growth; type: functional, cell-based
FRE [25] = test: Antitumor activity against human erbB2 transfected FRE cells xenografted bearing female athymic nu-nu CD-1 mouse assessed as tumor erbB2 receptor phosphorylation at 25 mg/kg, po administration and measured at 4 hrs by ELISA method; type: functional, organism-based
BT-474 [26] = test: Antitumor activity against human BT-474 expressing erbB2 cells xenografted bearing female athymic nu-nu CD-1 mouse assessed as tumor regression at 100 mg/kg, po bid administration and measured at 9 day relative to control; type: functional

For `COCC(=O)NC/C=C/c1ccc2ncnc(Nc3ccc(Oc4ccc(C)nc4)c(C)c3)c2c1` [CP-724714], the Activity (FRE [1]) was “Active”, the Activity (BT-474 [2]) was 10% and the EC50 [3] was 1 µg/mL (≈ 2.13 µM). It also gave an Activity [4] of 75%, an IC50 (MDA-MB-453 [5]) of 2500 nM and an Activity (BT-474 [6]) of 61%. The inhibition in vivo at 50 mg/kg [7] was roughly 50%, the Activity (BT-474 [8]) was 81% and the Activity (BT-474 [9]) was 83%. The IC50 (CAMA-1) was greater than 10000 nM, the inhibition (BT-474 [10]) was “Active” and the Activity [11] was “Non-Toxic”. It also gave an IC50 (BT-474 [12]) of 250 nM, an inhibition in vivo at 30 mg/kg (BT-474 [13]) of 81% and an Activity (BT-474 [14]) of 3.2%. For the same molecule, the Cave [15] was 1300 ng/mL, the inhibition in vivo at 100 mg/kg (COLO 205) was 46% and the inhibition in vivo at 1 mg/kg (BT-474 [16]) was 41%. For the same molecule, the inhibition in vivo at 100 mg/kg (MDA-MB-453 [17]) was 83%, the inhibition in vivo at 25 mg/kg (MDA-MB-453 [18]) was roughly 19% and the inhibition in vivo at 10 mg/kg (BT-474 [19]) was 42%. The inhibition at 1 µM (BT-474 [20]) was greater than 80%, the IC50 (MCF7) was 9800 nM and the IC50 (ZR-75-30) was 1500 nM. The Activity (FRE [21]) was “Active”, the Activity (BT-474 [22]) was “Active” and the IC50 (T47D) was 2400 nM. For the same molecule, the IC50 (SK-BR-3 [23]) was 950 nM, the inhibition at 3 µM (SK-BR-3 [24]) was greater than 80% and the IC50 (UACC-812) was 1900 nM. For the same molecule, the Activity (FRE [25]) was “inactive” and the Activity (BT-474 [26]) was roughly 6%.
